Source: patent publication US8586533B2, “Treatment of early-stage osteoarthritis” (Kaohsiung Medical University, priority 2008, dated 2013)

Columns and labels:
rat articular cartilage = test: Papain-induced OA rat model, type II and type X collagen immunohistochemistry; assay type: in vivo, Sprague-Dawley rats; conditions: OA plus PTH group, 10 nM intraarticular
Experimental: Fifty-four 12-week-old male Sprague-Dawley rats (250-300 gm) were purchased from BioLASCO Taiwan and housed under standard laboratory conditions (temperature 24° C., 12-hour light-dark cycle) with food and water ad libitum. The animals were acclimatized to the laboratory environment for 1 week before the experiments.
Rats were divided into the following 3 groups: OA (OA induction without PTH [1-34] treatment) (n=18), OA plus PTH (PTH [1-34] treatment followed by OA induction) (n=18), and PTH (PTH [1-34] treatment without OA induction) (n=18). Each left knee, which served as the contralateral control joint, was injected with vehicle without PTH treatment or OA induction. The right knees were the study joints. OA was induced in the right knees of rats in the OA and OA plus PTH groups with intraarticular injections of 20 μl of 4% papain solution and 20 μl of 0.03M cysteine. The injections were given with a 26-gauge needle via the patellar tendon on days 1, 4, and 7 of the experiment (see e.g., Nucl Med Commun (1996) 17(6): 529-35). In the OA plus PTH group, after OA induction, the right knees were injected intraarticularly with 40 μl of 10 nM PTH (1-34) every 3 days until rats were killed. In the PTH group, the same PTH (1-34) treatment was performed but without OA induction. Six rats from each group were killed by CO2 inhalation at the same time points as rats in the OA plus PTH group, in which PTH (1-34) treatment was given for 1, 3, and 5 weeks.
After rats were killed, the knees were harvested, and the tibia plateaus with articular cartilage were collected and fixed with 10% neutral buffered formalin prior to histologic preparation. The samples were then decalcified in 10% formic acid/PBS. The decalcified tibia articular samples were paraffin embedded, and 5-μm microsections in the coronary plane were prepared. GAG was stained with Safranin O-fast green (1% Safranin O counterstained with 0.75% hematoxylin and then 1% fast green) (Sigma, St. Louis Mo.). Localized type II collagen and type X collagen were immunostained. Apoptotic cells in cartilage were TUNEL stained.
The tibia articular sections were rehydrated, and the endogenous peroxidase in tissue was blocked with 3% hydrogen peroxide. Samples were digested by enzymes for epitope retrieval before incubation with primary antibodies (see e.g. J Histochem Cytochem (2002) 50(8): 1049-58). The optimal condition for enzyme digestion for type II collagen immunostaining was a mixture of 2.5% hyaluronidase and 1 mg/ml of Pronase in PBS (pH 7.4; Sigma) at 37° C. for 1 hour. […] The relative density of immunostaining (density/area; mean±SEM area 25.44±2.77 mm^2) was measured using Image-Pro Plus software, version 5.0 (Media Cybernetics).

[1] = test system: human articular chondrocytes; test: TUNEL staining, rate of apoptosis in chondrocyte cultures; assay type: cell-based; conditions: azaC plus PTH cultures, 10 nM, 14 days of treatment, P<0.01
Experimental: Chondrocyte cultures were divided into 4 groups.
We measured apoptotic cells using the TUNEL (terminal deoxy-nucleotidyl transferase mediated dUTP nick end labeling) staining method using the In Situ Cell Death Detection Kit, TMR red (Roche, Mannheim, Germany). Following the manufacturer's guidelines, cells were fixed with 4% paraformaldehyde in phosphate buffered saline (PBS) at a cell density of 1×10^6/ml and incubated at room temperature for 10 minutes, and then settled on a slide by centrifugation at a speed of 2,000 rpm for 5 minutes using a cytospin (Cytospin 3; Shandon, Cheshire, UK). Slides were rinsed twice with PBS, and the cells were permeabilized by incubating in permeabilization solution (0.1% Triton X-100 in 0.1% sodium citrate) for 2 minutes on ice. The TUNEL reaction mixture containing terminal deoxynucleotidyl transferase and rhodamine (the labeling dye) was added to the slides and incubated at 37° C. in a humidified chamber in the dark for 60 minutes. The reaction was stopped by a blocking buffer (0.1% Triton X-100/0.5% bovine serum albumin in PBS). Cells were counterstained by 4′,6-diamidino-2-phenylindole (DAPI). The slides were observed under a fluorescence microscope with an excitation wavelength of 580 nm for rhodamine and 365 nm for DAPI. Cell nuclei were stained blue by DAPI, and only apoptotic cells were stained red by rhodamine. Stained cells were counted in 5 microscopic fields (1.566 mm^2/field) on each slide. Data were analyzed using Image-Pro Plus analysis software (Media Cybernetics, Silver Spring, Md.). The rate of apoptosis in chondrocytes was defined as the ratio of red-stained cells (apoptotic cells) to blue-stained cells (total cells).
By using TUNEL staining, the rate of apoptosis in human articular chondrocyte cultures in the control, azaC, and azaC plus PTH groups were compared after 14 days of PTH(1-34) treatment (for the azaC plus PTH group).

[2] = test system: human articular chondrocytes; test: Quantitative real-time PCR of mRNA levels in azaC-induced terminal differentiation culture model; assay type: cell-based
Experimental: Chondrocyte cultures were divided into 4 groups. […] Louis, Mo.) for 48 hours.

PTH (1-34): 34-amino acid long peptide made up of amino-terminal amino acids 1 through 34 of human parathyroid hormone
Immunolocalized type X collagen in cartilage compared with OA group (rat articular cartilage; 3 and 5 weeks): less evident | density of immunolocalized type II collagen versus contralateral control cartilage (rat articular cartilage; 3 weeks): not different | density of immunolocalized type II collagen versus OA group (rat articular cartilage; 3 weeks, P<0.05): significantly higher | density of immunolocalized type II collagen versus OA group (P<0.01) and contralateral control (P<0.05) (rat articular cartilage; 5 weeks): significantly higher | rate of apoptosis versus azaC cultures [1]: significantly lower | rate of apoptosis versus control cultures [1]: 3.1 fold increase | Col2a1 expression among azaC plus PTH, azaC and control groups ([2]; 10 nM, 10 days of treatment): no significant difference | Expression of aggrecan, Col2a1, Col10a1, ALP, and IHH genes versus control group ([2]; PTH group (no azaC), 10 nM, 3-10 days of treatment): not significantly different | Bcl-2 expression ([2]; PTH group (no azaC), 10 nM, 3-10 days of treatment, not statistically significant): 1.7 times that in control | azaC-induced changes in levels of mRNA for Col10a1, ALP, and IHH ([2]; azaC plus PTH cultures, 10 nM, 3, 7 and 10 days of treatment): significantly eliminated | Expression of Col10a1 and ALP versus control cultures ([2]; azaC plus PTH cultures, 10 nM, day 3 of treatment, P<0.01): lower | Expression of ALP versus control cultures ([2]; azaC plus PTH cultures, 10 nM, day 10 of treatment, P<0.05): higher | IHH mRNA level, lower than control cultures ([2]; azaC plus PTH group, 10 nM, 3-10 days of treatment): 47-71% | aggrecan mRNA level versus azaC group ([2]; azaC plus PTH group, 10 nM, 3 and 7 days of treatment (P<0.05, P<0.01)): significantly higher | Col2a1 expression versus azaC group ([2]; azaC plus PTH group, 10 nM, 3 days of treatment, P<0.05): significantly higher | Col2a1 expression versus azaC (P<0.01) or control (P<0.05) group ([2]; azaC plus PTH group, 10 nM, 7 days of treatment): higher | aggrecan mRNA level versus azaC group ([2]; azaC plus PTH group, 10 nM, 10 days of treatment): not different | Bax expression ([2]; azaC plus PTH group, 10 nM, 14 days): 1.6 times that in the control cultures | ratio of Bcl-2 to Bax versus control group ([2]; azaC plus PTH group, 10 nM, after 3 days (P<0.05) and 10 days (P<0.01)): higher | Bcl-2 expression ([2]; azaC plus PTH group, 10 nM, after 3 days of treatment, P<0.05): 2.1 times that of control | Bcl-2 expression ([2]; azaC plus PTH group, 10 nM, after 7 days of treatment, P<0.05): 2.1 times control | Bcl-2 expression ([2]; azaC plus PTH group, 10 nM, after 10 days of treatment, P<0.01): 6.0 times control
